Experimental data from US10022356B2, “Compounds for treatment of cancer” (UNIVERSITY OF TENNESSEE RESEARCH FOUNDATION, priority 2013, dated 2018).
One block for each compound: values may come before it.

Legend:
[1] = system: OVCAR-8; test: Growth inhibition, OVCAR-8; assay type: cell-based; conditions: Homo sapiens, OVCAR-8, read-out: IC50 (nM), OVCAR-8
[2] = system: metastasis of melanoma to the lungs; test: Melanoma lung metastasis model in mice; assay type: in vivo; conditions: i.p. injection 5 days per week for 2 weeks (FIG. 28)
[3] = system: B16-F1 melanoma; test: B16-F1 melanoma tumors in C57/BL mice; assay type: in vivo; conditions: after 13 days of treatment, C57BL/6 mice
[4] = system: B16-F1 melanoma cells; test: B16-F1 melanoma colony formation assay in soft agar; assay type: cell-based, mouse; conditions: 14 days; tested 20, 100, 500 nM
Method: B16-F1 melanoma cells were plated at a colony-forming density (2000 cells per well on six-well plates) on top of 0.8% base agar. Cells were grown in 0.4% agar together with DMEM medium supplemented with fetal bovine serum and an antibiotic-antimycotic solution at 37° C. in an atmosphere of 95% air and 5% CO2. […] Compounds were added to the media from 1 mM DMSO stock solutions, and a corresponding dilution of DMSO was used as control. Cells were grown for 14 days. Plates were photographed, and the number of colonies was measured by Artek 880 Automated Colony Counter (Artek Systems Corporation, Farmingdale, N.Y.).

[5] = system: A375 human melanoma xenograft; test: A375 human melanoma xenograft in SHO nude mice; assay type: in vivo; conditions: 25 mg/kg; after 31 days of treatment
Method: FIG. 19 depicts in vivo study of ABI compounds. […] C57BL/6 mice bearing B16-F1 melanoma allograft (n=5 per group). Each mouse received 0.5×10^6 cells by s.c. injection into the flank. 30 μL i.p. daily treatments were started when tumor size reached ˜100 mm^3. […] SHO nude mice bearing an A375 human melanoma xenograft (n=5 per group). Each mouse received 2.5×10^6 cells by s.c. injection into the flank. 30 μL i.p. daily treatments were started when the tumor size reached ˜150 mm^3. Control, vehicle solution only; points, means; bars, SD. DTIC, (5-(3,3,-dimethyl-1-triazenyl)-imidazole-4-carboxamide, dacarbazine.
Average body weight of all groups increased slightly throughout the experiment period.

[6] = system: WM164; test: SRB cell culture cytotoxicity assay, WM-164; assay type: cell-based, human; conditions: 48 h
[7] = system: B16-F1; test: SRB cell culture cytotoxicity assay, B16-F1; assay type: cell-based, mouse; conditions: 48 h
[8] = system: DU145/TXR; test: Growth inhibition, DU145/TXR; assay type: cell-based; conditions: RABI, Table 10A; read-out: DU145/TXR (nM), inhibitory effects
[9] = system: MDA-MB-435; test: SRB growth inhibition, MDA-MB-435 (sensitive parent melanoma line); assay type: cell-based, human; conditions: Tables 11C, 11D; read-out: IC50 ± SEM (μm), MDA-MB-435
[10] = system: MDA-MB-435/LCC6MDR1; test: SRB growth inhibition, multidrug-resistant MDA-MB-435/LCC6MDR1; assay type: cell-based; conditions: Tables 11C, 11D; read-out: IC50 ± SEM (μm), MDA-MB-435/LCC6MDR1
[11] = system: LNCaP; test: SRB cytotoxicity assay, LNCaP; assay type: cell-based, human; conditions: Reversed aryl benzoyl imidazole (RABI), Tables 10A/10B; read-out: LNCaP (nM), inhibitory effects
[12] = system: PPC-1; test: SRB cytotoxicity assay, PPC-1; assay type: cell-based, human; conditions: RABI, Tables 10A/10B; read-out: PPC1 (nM), inhibitory effects
[13] = system: PC-3; test: SRB cytotoxicity assay, PC-3; conditions: read-out: PC3 (nM), inhibitory effects; RABI, Tables 10A/10B
[14] = system: Du 145; test: SRB cytotoxicity assay, Du 145; assay type: cell-based, human; conditions: RABI, Tables 10A/10B; read-out: DU145 (nM), inhibitory effects
[15] = system: A375; test: SRB cell culture cytotoxicity assay, A375; assay type: cell-based, human; conditions: Tables 11C, 11D; read-out: IC50 ± SEM (μm), A375
[16] = Metabolic stability in human liver microsomes; conditions: Table 13A; mean from duplicate studies
[17] = in vivo; conditions: nude, mouse, 20 mg/kg
[18] = ICR, Sprague-Dawley, beagle, mouse, in vivo

SMILES: O=C(c1ccc(F)cc1)c1c[nH]c(-c2ccc(Cl)cc2)n1 [12fb, (2-(4-chlorophenyl)-1H-imidazol-4-yl)(4-fluorophenyl)methanone]
IC50 [1]: 47 nM
metastasis of melanoma to the lungs [2]: inhibition
melanoma tumor growth inhibition (TGI value) ([3]; 15 mg/kg): 32%
melanoma tumor growth inhibition (TGI value) ([3]; 45 mg/kg): 82%
concentration showing effective inhibition of B16-F1 colony formation [4]: 100 nM
melanoma tumor growth inhibition (TGI value) [5]: 69%

SMILES: COc1cc(C(=O)c2c[nH]c(-c3ccc(O)cc3)n2)cc(O)c1OC [12kc]
IC50 [6]: 6400 nM
IC50 [7]: 5600 nM

IC50 [8]: 121 nM
SMILES: COc1cc(C(=O)c2nc(-c3ccc(Cl)cc3)c[nH]2)cc(OC)c1OC [70c]

IC50 [9]: 4600 nM
IC50 [10]: 5770 nM
SMILES: COc1cc(-c2c[nH]c(C(=O)c3ccccc3)n2)cc(OC)c1OC [70x]
IC50 [11]: 195 nM
IC50 [12]: 408 nM
IC50 [13]: 632 nM
IC50 [14]: 1300 nM

SMILES: COc1cc(Cc2nc(-c3ccccc3)c[nH]2)cc(OC)c1OC [102a]
IC50 [15]: 10200 ± 392 nM

SMILES: COc1cc(C(=O)c2csc(Nc3ccc4[nH]ccc4c3)n2)cc(OC)c1OC [compound 55]
half-life in human liver microsomes [16]: 28 min
Kp [17]: 3.2
oral bioavailability rates among three species [18]: 24-36%
